Measured values from ChEMBL document CHEMBL4190187, “Discovery of pyrazolopyrimidine derivatives as novel inhibitors of ataxia telangiectasia and rad3 related protein (ATR)” (Bioorg Med Chem Lett, 2017).

Legend:
[1] = target: Insulin receptor (Homo sapiens) (UniProt P06213); assay: Inhibition of recombinant human IR (1005 to 1310 residues) at 1 uM using KKSRGDYMTMQIG as substrate after 40 mins in presence of [gamma-33P]ATP by scintillation counting method
[2] = target: Mitogen-activated protein kinase 14 (Homo sapiens) (UniProt Q16539); assay: Inhibition of recombinant full-length human SAPK2a at 1 uM using myelin basic protein as substrate after 40 mins in presence of [gamma-33P]ATP by scintillation counting method
[3] = target: Calcium/calmodulin-dependent protein kinase kinase 2 (Homo sapiens) (UniProt Q96RR4); assay: Inhibition of recombinant full-length human CAMKK2 at 1 uM using […] after 40 mins in presence of [gamma-33P]ATP by scintillation counting method
[4] = target: Phosphatidylinositol 4-phosphate 3-kinase C2 domain-containing subunit alpha (Homo sapiens) (UniProt O00443); assay: Inhibition of recombinant human PI3KC2alpha (299 to end residues) at 1 uM phosphatidylinositol/phosphatidylserine as substrate after 40 mins in presence of [gamma-33P]ATP by scintillation counting method
[5] = target: PI3K p110 beta/p85 alpha (Homo sapiens) (UniProt P27986+P42338); assay: Inhibition of recombinant full-length human p110b/p85a at 1 uM using phosphatidylinositol 4,5-bisphosphate as substrate after 40 mins in presence of [gamma-33P]ATP by scintillation counting method; type: protein-complex assay
[6] = target: Dual specificity tyrosine-phosphorylation-regulated kinase 1B (Homo sapiens) (UniProt Q9Y463); assay: Inhibition of recombinant full-length human DYRK1B at 1 uM using RRRFRPASPLRGPPK as substrate after 40 mins in presence of [gamma-33P]ATP by scintillation counting method
[7] = target: Glycogen synthase kinase-3 beta (Homo sapiens) (UniProt P49841); assay: Inhibition of recombinant human GSK3beta (2 to end residues) at 1 uM using YRRAAVPPSPSLSRHSSPHQS(p)EDEEE (phospho GS2 peptide) as substrate after 40 mins in presence of [gamma-33P]ATP by scintillation counting method
[8] = target: Proto-oncogene tyrosine-protein kinase receptor Ret (Homo sapiens) (UniProt P07949); assay: Inhibition of recombinant human RET (658 to end residues) at 1 uM using KKKSPGEYVNIEFG as substrate after 40 mins in presence of [gamma-33P]ATP by scintillation counting method
[9] = target: RAF proto-oncogene serine/threonine-protein kinase (Homo sapiens) (UniProt P04049); assay: Inhibition of recombinant human c-RAF (306 to end residues) at 1 uM using inactive MEK1 as substrate after 40 mins in presence of [gamma-33P]ATP by scintillation counting method
[10] = target: Tyrosine-protein kinase ABL2 (Mus musculus) (UniProt Q4JIM5); assay: Inhibition of A562 insertion recombinant mouse ARG (27 to end residues) at 1 uM using EAIYAAPFAKKK as substrate after 40 mins in presence of [gamma-33P]ATP by scintillation counting method
[11] = Half life in mouse at 10 mg/kg, po; type: ADME, organism-based; settings: in vivo
[12] = test system: Mitogen-activated protein kinase 14 (Homo sapiens), Q16539 [T106M]; assay: Inhibition of recombinant full-length human SAPK2a T106M mutant at 1 uM using myelin basic protein as substrate after 40 mins in presence of [gamma-33P]ATP by scintillation counting method
[13] = target: Serine/threonine-protein kinase/endoribonuclease IRE1 (Homo sapiens) (UniProt O75460); assay: Inhibition of recombinant human IRE1 (465 to end residues) at 1 uM using myelin basic protein as substrate after 40 mins in presence of [gamma-33P]ATP by scintillation counting method
[14] = target: Mitogen-activated protein kinase 1 (Homo sapiens) (UniProt P28482); assay: Inhibition of recombinant full-length human MAPK1 at 1 uM using myelin basic protein as substrate after 40 mins in presence of [gamma-33P]ATP by scintillation counting method
[15] = target: Activin receptor type-1 (Homo sapiens) (UniProt Q04771); assay: Inhibition of recombinant human ALK2 (147 to end residues) at 1 uM using casein as substrate after 40 mins in presence of [gamma-33P]ATP by scintillation counting method
[16] = target: Dual specificity mitogen-activated protein kinase kinase 6 (Homo sapiens) (UniProt P52564); assay: Inhibition of recombinant human MKK6 (4 to end residues) at 1 uM using inactive SAPK2a as substrate after 40 mins in presence of [gamma-33P]ATP by scintillation counting method
[17] = target: Mitogen-activated protein kinase kinase kinase 5 (Homo sapiens) (UniProt Q99683); assay: Inhibition of recombinant human ASK1 (649 to 946 residues) at 1 uM using myelin basic protein as substrate after 40 mins in presence of [gamma-33P]ATP by scintillation counting method
[18] = target: Serine/threonine-protein kinase PAK 3 (Homo sapiens) (UniProt O75914); assay: Inhibition of recombinant full-length human PAK3 at 1 uM using RRRLSFAEPG as substrate after 40 mins in presence of [gamma-33P]ATP by scintillation counting method
[19] = target: Tyrosine-protein kinase ITK/TSK (Homo sapiens) (UniProt Q08881); assay: Inhibition of recombinant human ITK (352 to 617 residues) at 1 uM using myelin basic protein as substrate after 40 mins in presence of [gamma-33P]ATP by scintillation counting method
[20] = target: Ribosomal protein S6 kinase alpha-2 (Homo sapiens) (UniProt Q15349); assay: Inhibition of recombinant full-length human Rsk3 at 1 uM using KKKNRTLSVA as substrate after 40 mins in presence of [gamma-33P]ATP by scintillation counting method
[21] = test system: Tyrosine-protein kinase ABL1 (Homo sapiens), P00519 [M351T]; assay: Inhibition of recombinant human Abl M351T mutant (27 to end residues) at 1 uM using EAIYAAPFAKKK as substrate after 40 mins in presence of [gamma-33P]ATP by scintillation counting method
[22] = test system: Receptor-type tyrosine-protein kinase FLT3 (Homo sapiens), P36888 [D835Y]; assay: Inhibition of recombinant human Flt3 D835Y mutant (564 to end residues) at 1 uM using EAIYAAPFAKKK as substrate after 40 mins in presence of [gamma-33P]ATP by scintillation counting method
[23] = target: MAP kinase-activated protein kinase 2 (Homo sapiens) (UniProt P49137); assay: Inhibition of recombinant human MAPKAPK2 (46 to end residues) at 1 uM using KKLNRTLSVA as substrate after 40 mins in presence of [gamma-33P]ATP by scintillation counting method
[24] = target: Serine/threonine-protein kinase 24 (Homo sapiens) (UniProt Q9Y6E0); assay: Inhibition of recombinant human MST3 (1 to 304 residues) at 1 uM using ERMRPRKRQGSVRRRV as substrate after 40 mins in presence of [gamma-33P]ATP by scintillation counting method

Sequence of Insulin receptor (Homo sapiens) (P06213 28-758 limits assumed): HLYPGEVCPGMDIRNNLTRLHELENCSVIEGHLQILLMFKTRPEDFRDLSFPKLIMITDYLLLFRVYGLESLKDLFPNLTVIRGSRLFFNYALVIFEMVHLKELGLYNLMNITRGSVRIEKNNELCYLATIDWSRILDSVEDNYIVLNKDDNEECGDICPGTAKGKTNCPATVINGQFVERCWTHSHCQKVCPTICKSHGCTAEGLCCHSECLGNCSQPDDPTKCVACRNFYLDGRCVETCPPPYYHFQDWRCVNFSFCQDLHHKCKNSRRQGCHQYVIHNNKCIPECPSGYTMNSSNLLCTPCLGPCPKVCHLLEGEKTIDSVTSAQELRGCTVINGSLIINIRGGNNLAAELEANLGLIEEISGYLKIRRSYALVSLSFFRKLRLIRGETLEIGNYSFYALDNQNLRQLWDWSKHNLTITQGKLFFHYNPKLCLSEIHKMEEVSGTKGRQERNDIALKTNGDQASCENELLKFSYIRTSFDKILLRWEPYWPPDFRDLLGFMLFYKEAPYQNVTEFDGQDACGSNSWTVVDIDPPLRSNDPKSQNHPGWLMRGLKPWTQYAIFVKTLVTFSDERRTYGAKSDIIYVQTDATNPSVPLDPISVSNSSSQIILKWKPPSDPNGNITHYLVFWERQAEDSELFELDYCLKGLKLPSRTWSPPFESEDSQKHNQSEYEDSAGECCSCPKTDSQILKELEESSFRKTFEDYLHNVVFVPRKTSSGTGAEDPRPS
Sequence of Insulin receptor (Homo sapiens) (P06213 763-1382 limits assumed): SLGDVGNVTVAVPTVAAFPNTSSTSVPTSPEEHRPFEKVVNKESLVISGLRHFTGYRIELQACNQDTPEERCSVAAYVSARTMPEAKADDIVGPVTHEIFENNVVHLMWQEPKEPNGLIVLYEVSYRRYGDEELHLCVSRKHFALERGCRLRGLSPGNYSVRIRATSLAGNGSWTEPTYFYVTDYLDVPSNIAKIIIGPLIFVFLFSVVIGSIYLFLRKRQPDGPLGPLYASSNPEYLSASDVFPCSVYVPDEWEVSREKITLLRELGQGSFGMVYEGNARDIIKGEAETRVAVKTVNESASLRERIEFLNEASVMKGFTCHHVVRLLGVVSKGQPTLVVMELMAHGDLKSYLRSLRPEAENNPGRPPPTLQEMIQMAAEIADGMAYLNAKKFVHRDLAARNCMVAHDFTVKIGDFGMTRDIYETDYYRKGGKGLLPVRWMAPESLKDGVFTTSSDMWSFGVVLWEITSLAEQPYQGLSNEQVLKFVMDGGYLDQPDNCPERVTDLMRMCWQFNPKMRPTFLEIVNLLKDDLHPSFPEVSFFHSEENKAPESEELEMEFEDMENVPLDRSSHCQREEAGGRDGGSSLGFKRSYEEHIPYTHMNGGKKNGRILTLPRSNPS
Sequence of Mitogen-activated protein kinase 14 (Homo sapiens) (Q16539 whole entry): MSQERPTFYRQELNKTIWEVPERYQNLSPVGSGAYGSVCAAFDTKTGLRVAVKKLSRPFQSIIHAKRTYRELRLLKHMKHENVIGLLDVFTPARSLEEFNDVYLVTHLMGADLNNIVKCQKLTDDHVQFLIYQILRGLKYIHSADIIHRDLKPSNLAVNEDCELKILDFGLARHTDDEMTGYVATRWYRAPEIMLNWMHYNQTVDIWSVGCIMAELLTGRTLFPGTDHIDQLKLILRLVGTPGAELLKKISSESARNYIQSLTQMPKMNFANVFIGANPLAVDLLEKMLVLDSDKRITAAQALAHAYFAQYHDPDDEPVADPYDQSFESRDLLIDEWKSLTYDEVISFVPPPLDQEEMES
Sequence of Dual specificity mitogen-activated protein kinase kinase 6 (Homo sapiens) (P52564 whole entry, the tested form may be a part): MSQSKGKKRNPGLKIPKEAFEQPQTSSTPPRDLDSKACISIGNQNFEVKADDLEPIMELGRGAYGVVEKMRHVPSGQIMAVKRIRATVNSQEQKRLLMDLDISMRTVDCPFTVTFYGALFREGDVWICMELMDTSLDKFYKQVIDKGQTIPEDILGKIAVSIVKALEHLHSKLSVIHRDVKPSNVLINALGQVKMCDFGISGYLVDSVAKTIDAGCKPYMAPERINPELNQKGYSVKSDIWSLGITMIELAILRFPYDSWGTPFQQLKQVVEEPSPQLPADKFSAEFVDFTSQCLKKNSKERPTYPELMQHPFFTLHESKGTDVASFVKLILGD
Sequence of Mitogen-activated protein kinase 14 (Homo sapiens), Q16539 [T106M] (Q16539 whole entry T106M): as the sequence (Q16539 whole entry) above, with T106M counted along it
Sequence of Proto-oncogene tyrosine-protein kinase receptor Ret (Homo sapiens) (P07949 whole entry): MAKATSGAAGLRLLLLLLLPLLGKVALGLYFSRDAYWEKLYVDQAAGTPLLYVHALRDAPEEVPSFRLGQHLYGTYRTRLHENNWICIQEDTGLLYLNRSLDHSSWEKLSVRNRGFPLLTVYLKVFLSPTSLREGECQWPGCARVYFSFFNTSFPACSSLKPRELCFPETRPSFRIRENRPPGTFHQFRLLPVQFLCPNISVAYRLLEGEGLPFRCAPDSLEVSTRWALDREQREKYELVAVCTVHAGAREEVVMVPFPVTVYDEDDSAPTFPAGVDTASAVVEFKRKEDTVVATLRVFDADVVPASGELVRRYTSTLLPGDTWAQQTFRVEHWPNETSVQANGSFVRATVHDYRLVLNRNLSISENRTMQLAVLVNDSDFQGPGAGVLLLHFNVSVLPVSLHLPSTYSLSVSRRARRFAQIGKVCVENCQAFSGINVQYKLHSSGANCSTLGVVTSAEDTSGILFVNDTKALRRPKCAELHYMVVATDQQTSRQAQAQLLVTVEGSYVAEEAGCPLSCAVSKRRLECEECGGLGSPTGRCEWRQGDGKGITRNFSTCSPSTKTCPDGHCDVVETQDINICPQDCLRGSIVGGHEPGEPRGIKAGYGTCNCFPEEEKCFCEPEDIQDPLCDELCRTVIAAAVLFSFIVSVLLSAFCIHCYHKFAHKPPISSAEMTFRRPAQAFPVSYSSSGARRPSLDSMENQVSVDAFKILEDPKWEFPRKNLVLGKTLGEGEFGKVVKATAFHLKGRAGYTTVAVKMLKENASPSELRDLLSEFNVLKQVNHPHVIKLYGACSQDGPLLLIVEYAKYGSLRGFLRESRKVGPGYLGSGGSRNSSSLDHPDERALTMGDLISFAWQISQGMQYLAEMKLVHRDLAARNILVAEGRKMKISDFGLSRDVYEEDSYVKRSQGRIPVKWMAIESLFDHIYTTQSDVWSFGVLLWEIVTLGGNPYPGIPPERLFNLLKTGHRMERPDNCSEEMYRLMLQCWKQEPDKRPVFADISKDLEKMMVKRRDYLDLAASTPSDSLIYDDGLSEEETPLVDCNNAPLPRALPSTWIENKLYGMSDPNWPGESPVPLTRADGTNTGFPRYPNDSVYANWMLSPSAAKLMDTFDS
Sequence of Dual specificity tyrosine-phosphorylation-regulated kinase 1B (Homo sapiens) (Q9Y463 whole entry, looked up): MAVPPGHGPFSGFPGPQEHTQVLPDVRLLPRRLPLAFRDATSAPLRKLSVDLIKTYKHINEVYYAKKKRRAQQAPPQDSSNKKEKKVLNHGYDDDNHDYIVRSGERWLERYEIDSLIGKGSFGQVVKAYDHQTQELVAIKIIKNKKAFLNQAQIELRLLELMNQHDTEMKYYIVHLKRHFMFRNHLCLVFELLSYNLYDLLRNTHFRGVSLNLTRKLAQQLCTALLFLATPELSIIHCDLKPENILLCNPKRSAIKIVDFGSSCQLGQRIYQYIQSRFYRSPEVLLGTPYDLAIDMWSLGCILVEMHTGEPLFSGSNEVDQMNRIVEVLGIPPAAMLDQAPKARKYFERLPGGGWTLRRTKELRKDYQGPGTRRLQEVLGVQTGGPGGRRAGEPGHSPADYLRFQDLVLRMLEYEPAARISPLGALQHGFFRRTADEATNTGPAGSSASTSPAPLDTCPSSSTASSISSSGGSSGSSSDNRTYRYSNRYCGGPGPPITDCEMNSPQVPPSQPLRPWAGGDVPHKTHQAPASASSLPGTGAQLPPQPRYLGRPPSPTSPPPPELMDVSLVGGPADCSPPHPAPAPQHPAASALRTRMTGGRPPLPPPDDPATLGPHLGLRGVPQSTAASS
Sequence of Serine/threonine-protein kinase/endoribonuclease IRE1 (Homo sapiens) (O75460 19-977 limits assumed): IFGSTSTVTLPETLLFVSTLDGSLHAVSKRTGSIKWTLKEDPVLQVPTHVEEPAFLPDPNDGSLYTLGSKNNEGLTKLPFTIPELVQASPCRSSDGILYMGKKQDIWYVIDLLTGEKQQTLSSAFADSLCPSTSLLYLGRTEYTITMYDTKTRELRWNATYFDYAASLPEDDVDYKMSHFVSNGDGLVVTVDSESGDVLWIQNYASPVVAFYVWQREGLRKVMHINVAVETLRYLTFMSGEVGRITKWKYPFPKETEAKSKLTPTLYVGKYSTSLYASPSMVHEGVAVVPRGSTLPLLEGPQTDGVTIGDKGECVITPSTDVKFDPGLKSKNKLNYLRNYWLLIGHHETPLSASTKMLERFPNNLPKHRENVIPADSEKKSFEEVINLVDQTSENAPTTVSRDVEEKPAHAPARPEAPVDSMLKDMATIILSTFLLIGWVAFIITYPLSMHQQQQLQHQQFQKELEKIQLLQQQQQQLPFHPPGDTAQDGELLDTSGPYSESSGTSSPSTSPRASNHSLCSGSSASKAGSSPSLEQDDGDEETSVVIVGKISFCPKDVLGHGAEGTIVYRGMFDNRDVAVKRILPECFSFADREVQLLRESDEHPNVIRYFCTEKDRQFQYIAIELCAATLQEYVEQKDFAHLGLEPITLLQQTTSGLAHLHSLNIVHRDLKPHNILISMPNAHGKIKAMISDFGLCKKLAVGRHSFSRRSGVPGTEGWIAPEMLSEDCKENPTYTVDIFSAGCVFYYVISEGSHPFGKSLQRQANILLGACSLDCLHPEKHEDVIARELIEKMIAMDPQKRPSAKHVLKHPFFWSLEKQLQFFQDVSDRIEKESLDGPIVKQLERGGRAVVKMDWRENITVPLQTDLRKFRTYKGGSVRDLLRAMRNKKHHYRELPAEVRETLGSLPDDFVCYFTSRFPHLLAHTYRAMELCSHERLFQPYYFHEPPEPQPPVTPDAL

In the case of CS(=O)(=O)c1ccc(-n2nc(-c3cnc4[nH]ccc4c3)c3c(N)ncnc32)cc1, the inhibition [1] was -7%, the inhibition [2] was -5% and the inhibition [3] was -4%. For the same compound, the inhibition [4] was 23%, the inhibition [5] was 0% and the inhibition [6] was -4%. It also gave an inhibition [7] of 2%, an inhibition [8] of 95% and an inhibition [9] of -1%. It also gave an inhibition [10] of 69%, a half-life [11] of 2.28 h and an inhibition [12] of 0%. The inhibition [13] was 2%, the inhibition [14] was 2% and the inhibition [15] was 0%. The inhibition [16] was 1%, the inhibition [17] was -7% and the inhibition [18] was 4%. It also gave an inhibition [19] of -9%, an inhibition [20] of -8% and an inhibition [21] of 77%. The inhibition [22] was 37%, the inhibition [23] was -4% and the inhibition [24] was 13%.
